System: ASCs
Experiment: MTS assay after post-thaw seeding of ASCs pretreated with compounds prior to freezing
Format: cell-based, human
Conditions: for increase in mitochondrial activity compared to non-treated cells (MTS, 490 nm): pretreatment with 6 mM NAC
Procedure: ASCs from donor A were thawed by warming the vials in a 37° C. bath and diluting the freezing medium containing DMSO with fresh complete DMEM (DMEM/F-12 media—GlutaMAX™-I, Gibco, supplemented with 100 μg/mL penicillin/streptomycin and 10% FBS). Cells were centrifuged at 450 g for 6 minutes at room temperature to eliminate leftover DMSO and plated in T-175 flasks at 20.000 cells/cm^2 in complete DMEM.
A 600 mM stock of NAC (SIGMA) was prepared in Milli-Q water (Millipore). This stock was used for pre-treatment and post-treatment by adding directly 50 μL stock solution per well into 5 mL of medium, making a final concentration of 6 mM. For 2 mM, only 16.7 μL were added per well, and in the case of 12 mM, 100 μL of stock were added. DMSO was used as the vehicle for sc79 and LY294.
Following the pretreatment step, the medium was removed, the cells were washed with PBS and trypsinized using trypsin-EDTA 0.25% (ThermoFisher) for 8 minutes at 37° C. After trypsin inactivation with complete DMEM, cells were harvested and centrifuged prior to resuspension in freezing medium (FBS with 10% DMSO), and frozen into 500,000 or 1 million cells per vial and stored in liquid nitrogen for further use. Specifically, the cells were frozen at −80° C. for 24 hours in a Cool Cell® device (BioCision) and then transferred to a liquid nitrogen storage container. All experiments were performed in incubators and 37° C., 5% CO2.
[…] The CellTiter 96° Aqueous One Solution Cell Proliferation Assay is a colorimetric method for determining the number of viable cells. The CellTiter 96° Aqueous One Solution reagent contains a tetrazolium compound [3-(4,5-dimethylthiazol-2-yl)-5-(3-carboxymethoxyphenyl)-2-(4-sulfophenyl)-2H-tetrazolium, MTS] and an electron coupling reagent (phenazine ethosulfate; PES). The MTS tetrazolium compound is bioreduced by cells—presumably by NADPH or NADH produced by dehydrogenase enzymes in metabolically active cells—into a coloured formazan product that is soluble in tissue culture medium.
Briefly, 40 μL of the reagent was added to 200 μL of complete DMEM in each well and absorbance was measured after 2-3 hours at 490 nm using a […]. Each condition was measured in 6 technical repeats. The MTS assay results are presented as percentage of absorbance at 490 nm relative to the non-treated (NT) cells.

CC(=O)N[C@@H](CS)C(=O)O [NAC, N-Acetylcysteine]
cell number by MTS assay versus non-treated (6 mM NAC pretreatment for 24 hours, 24 hours post-seeding after thaw (FIG. 2)): increased cell numbers | increase of mitochondrial activity after NAC pretreatment (MTS) (6 mM NAC pretreatment, FIGS. 4B & C (24 and 96 hours post-thaw)): 15-20% | increase in mitochondrial activity compared to non-treated cells (MTS, 490 nm) (24 hours culture post-thaw (FIG. 4B)): greater than 35% | increase in mitochondrial activity compared to non-treated cells (MTS, 490 nm) (96 hours culture post-thaw (FIG. 4C)): greater than 15%
